| Compound | melting point [°C] |
| --- | --- |
| C=C(C1=C(CCC(=O)OC)C(=O)CC1O)c1ccccc1 (centres undefined) | 80 |
| CS(=O)(=O)c1ccc(/C(=C2\CCN(CCO)C2=O)c2ccc(Cl)cc2)cc1 | 187 to 188 |
| CC1CN(c2ccc(N)cc2)CC(C)N1 (centres undefined) | 124 to 125 |
| Nc1c(-c2cc(Cl)ccc2O)c2c(Cl)cc(Cl)cc2[nH]c1=O | 275 to 277 |
| N#Cc1ccccc1C(C#N)c1ccc(F)cc1 (centres undefined) | 87 to 89 |
| CCOC(=O)NCC(C)C(NC(=O)OCC)NC(=O)OCC (centres undefined) | 138 to 140 |
| CCN(CC)CCCNc1ncc2cc(-c3c(Cl)cccc3Cl)c(NC(=O)NC(C)C)nc2n1 | 88 to 100 |
| O=C(NN=Cc1c(O)ccc2ccccc12)c1cc2ccccc2cc1O | > 300 |
| Clc1ccc(-c2nc3cccnc3[nH]2)cc1 | 305 to 308 |
| CCOC(=O)C1=C(N)N=C(OCC)C(C(=O)OCC)C1c1ccco1 (centres undefined) | 110 |
| COC(=O)CC(=O)c1cc2cc(OC)c(OC)cc2s1 | 129 to 130 |
| Nc1ncn(C2OC(CO)C(O)C2O)c2nc(=O)sc1-2 (centres undefined) | 132 to 134 |
| Cc1ccc(C2c3c(C)c(N4CCN(c5ccc(F)cc5)CC4)c(C)c(C)c3OC2(C)C)cc1 (centres undefined) | 159 to 162 |
| CC1(COc2ccc([N+](=O)[O-])cc2)CC(O)c2cc(O)c(C(C)(C)C)cc2O1 (centres undefined) | 194 to 201 |
| CC(=O)N[C@H]1CC[C@H](CCN2CCN(c3nc(C)cc4occc34)CC2)CC1 | 208 |
| CC(=O)NC1CCS(=O)(=O)c2sc(S(N)(=O)=O)cc21 (centres undefined) | 263 to 265 |

| Compound | melting point [°C] |
| --- | --- |
| CCOC(=O)C1=CC(C(=O)c2cc(Br)ccc2O)=CN2CCc3c([nH]c4ccc(OC)cc34)C12C(=O)OCC (centres undefined) | 225 |
| CC(=O)Oc1c(C2CCN(CCCCNC(=O)c3ccc(-c4ccc(C#N)cc4)cc3)CC2)ccc2ccccc12 | 115 to 120 |
| CCOC(=O)C1(S(=O)(=O)c2ccc(OC)cc2)CCN(Cc2ccc(-c3ccccc3)cc2)CC1 | 176 to 178 |
| O=[N+]([O-])c1cc([N+](=O)[O-])c(N2CCSCC2)c(C(F)(F)F)c1 | 120 to 121 |
| O=c1cc(NCCN2CCN(c3ccccc3)CC2)cn[nH]1 | 147 to 149 |
| CC(C)(C)OC(=O)NCCc1ccnc(-c2nc(=O)c3ccc(Cl)cc3s2)c1 | 168 to 169 |
| COC(=O)CCc1ccc(N2CCN(c3ccc(C(=N)NC(=O)OC)cc3)C2=O)cc1 | > 260 |
| CNC(=O)Nc1ccsc1C(=O)OC | 141 to 142 |
| CC(=O)N1CCC(N(C)S(C)(=O)=O)CC1 | 132 |
| CC(C)(C)c1cc(-c2ccccc2NC(=O)CCCC(=O)O)cc(C(C)(C)C)c1O | 132 to 134 |
| Cc1nc(-c2ccc(C(=O)N(C)c3ccc(Cl)cc3)cc2)sc1C(=O)O | 210 to 212 |
| COc1ccc(/C=C(\C#N)c2ccc(N)cc2)cc1OC1CCCC1 | 82 to 84 |
| CN1C(=O)C(C)(C)C(=O)Nc2ccc(C#N)cc21 | 250 to 251 |
| CN(C)Cc1ccc(CSCCNC(=C[N+](=O)[O-])NCCSCc2ccc(CN(C)C)o2)o1 | 58 to 62 |
| O=[N+]([O-])c1ccc(OS(=O)(=O)c2cccnc2Cl)cc1 | 127 to 128 |

Other lines, results leading:

| melting point [°C] | Compound |
| --- | --- |
| 105 to 106 | C#CC1(COCc2ccccc2)OC(n2ccc(=O)[nH]c2=O)C(OC(C)=O)C1OCc1ccccc1 (centres undefined) |
| 203 to 211 | COC(=O)c1c(C)nc2c(c1N)c1cc(Cl)ccc1n2C |
| 137 to 142 | COc1ccc2c(c1)C(=O)N(c1ccc3c(c1)N(C)CCN3C)C2 |
| 139 to 141 | CCc1nc2c(-c3cc4ccoc4cc3C)ncnc2n1C(C1CC1)C1CC1 |
| 131 to 133 | O=[N+]([O-])c1ccc(CO)c(Sc2ccccc2O)c1 |
| 150 to 153 | CC(=O)ONC(=N)c1ccc(-c2cccc(-c3nc4ccc(C(=N)NOC(C)=O)cc4[nH]3)n2)cc1 |
| 139 to 140 | NC(=S)C(F)(F)C[C@H]1CN(c2ccc(C3C=CS(=O)(=O)CC3)cc2)C(=O)O1 (some centres undefined) |
| 86 to 88 | CO[C@@H]1COCC[C@]1(OC)c1cccc(OCc2ccc3ccccc3c2)c1 (racemic) |
| 57 to 60 | OCC1=CCN(Cc2ccccc2)CC1 |
| 246 to 248 | Cc1cc(-c2c(F)cc3c(=O)c(C(=O)O)cn(C4CC4)c3c2F)cc(C)n1 |
| 176 | NC(=O)NCCC[C@H](NCC(O)C(O)C(O)C(O)CO)C(=O)O (some centres undefined) |
| 117 to 119 | CCOC(=O)CONC(=S)Nc1cc(Cl)ccc1C |
| 71 to 72 | CC(C)C(C)(C#N)N1C(=O)c2cccc(Cl)c2C1=O (centres undefined) |
| 152 to 153 | ClC(=NNc1ccccc1)c1ccc(Br)cc1 |
| 136 to 137 | O=[N+]([O-])c1ccc(CP2(=O)OCCCCO2)cc1 |
| 301 to 303 | Cc1ccc(-n2cc(C(=O)O)c(=O)c3ccc(-c4ccncc4)cc32)cc1C |
| > 260 | CC(C)(C)c1cc(-c2c[nH]c(=O)[nH]2)cc(C(C)(C)C)c1O |
| 45.5 to 46.5 | Nc1c(Cl)cc(C(O)CNCCCCCCOCCOCCc2ccccn2)cc1Cl (centres undefined) |
| 165 to 168 | CCCCCCCCCCCc1cc2ccc(C(=O)O)cc2n1C |

| melting point [°C] | Compound |
| --- | --- |
| 146 | O=S1(=O)NCCNc2ccc(Oc3cccc(CO)c3)cc21 |
| 192 to 195 | CN1C(=O)CC[C@]2(C)c3ccc(CC(=O)Nc4ccccc4)cc3CC[C@@H]12 |
| 210 to 212 | Cc1nc2c3c(ccn2c1C)C(O)CC(c1ccccc1)N3 (centres undefined) |
| 188 to 191 | COc1cccc(CNC(=O)c2cc3c(=O)n(CCC(=O)c4ccccc4)c(=O)n(C)c3s2)c1 |
| 129 to 130 | CCCN(CCC)CC(=O)Nc1cccc2c1C(=O)c1c(NC(=O)CN(CCC)CCC)cccc1C2=O |
| 299 to 303 | CCn1cc(C(=O)O)c(=O)c2cc(F)c(N)nc21 |
| 112 to 114 | O=C1CC2(C(=O)N1)C(=O)N(Cc1ccc(Br)cc1F)C(=O)c1ccccc12 (centres undefined) |
| 193 to 194 | COc1cccc(CN2C(=O)C3CCCC3N(C(=O)CN3C(=O)c4ccccc4C3=O)c3ccccc32)c1 (centres undefined) |
| 192 to 194 | CC(c1ccc(F)c(F)c1F)n1ncc(-c2ccc(S(N)(=O)=O)cc2)c(-c2ccc(F)cc2)c1=O (centres undefined) |
| > 300 | COc1ccc(-c2[nH]nc3c2C(=O)c2c(NC(=O)Cc4ccc(OC)c(OC)c4)cccc2-3)cc1 |
| 180 to 181 | O=CC(=O)c1ccc(OCc2ccccc2)c(CO)c1 |
| 174 to 175 | CCCCc1nc2c(N)nc3ccccc3c2n1CCCCNC(=O)c1ccccc1 |
| 212 to 215 | CCOC(=O)c1cnn2c1nc(NCCCN(C)C)c1cnc3c(cnn3CC)c12 |
| 145 | O=C(c1c(F)cccc1F)n1c(-c2c(F)cccc2F)nc2ccccc21 |
| 81 to 82 | CCOC(=O)CC[C@H](NC(=O)c1cc(CCCc2cc3c(=O)[nH]c(N)nc3[nH]2)cs1)C(=O)OCC |
| 68 to 70 | O=COCCCN1C(=O)c2ccccc2C1=O |
| 93 to 94 | COc1ccc(C=CC(=O)c2cccc(O)c2)cc1 |
| 219 to 221 | COc1cc2c(Nc3ccc(Sc4nccn4C)c(Cl)c3)c(C#N)cnc2cc1N1CCC(N2CCOCC2)CC1 |
| 201 to 202 | O=C(CNC(=O)C(Cc1ccc(OCc2ccccc2)cc1)NC(=O)OCc1ccccc1)Nc1n[nH]c(=S)s1 (centres undefined) |

— a melting point compilation (Tetko et al.; mined from patent text by program, amines drawn as free bases though some values may be those of a salt)
